How the values were obtained:
Human δ-opioid (DOP) = target: T1, Human δ-opioid (DOP) (Homo sapiens, UniProt P41143); assay: Radioligand binding, human δ-opioid (DOP) membranes, FlashPlate, [3H]-Bremazocine; settings: compound at 10 μM; for A1: inhibition of radioligand binding, human δ-opioid (DOP) / A1: inhibition of radioligand binding: [3H]-Bremazocine; for A1: inhibition of radioligand binding: human DOP membranes
T1 construct: purchased Perkin Elmer Biosignal
Method in brief: (§1)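 Cloned human receptor membranes were coated onto FlashPlate wells and incubated with radioligand and compound (added from a 0.5 mM DMSO daughter plate) for 1 hour at room temperature in the dark. Scintillation counting gave percent inhibition, with DMSO defining total and reference ligand defining non-specific binding.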

Human κ-Opioid (KOP) = target: T2, Human κ-Opioid (KOP) (Homo sapiens, UniProt P41145); assay: Radioligand binding, human κ-opioid (KOP) membranes, filtration, [3H]-Diprenorphine; settings: compound at 10 μM; for A2: inhibition of radioligand binding, human κ-opioid (KOP) / A2: inhibition of radioligand binding: [3H]-Diprenorphine; for A2: inhibition of radioligand binding: human KOP membranes
T2 construct: purchased Perkin Elmer Biosignal
Method in brief: (§2)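 Membranes from cloned human receptors were incubated with compound and radioligand for 1 hour at room temperature. Bound ligand was collected on 0.3% PEI-soaked filters, washed with cold 50 mM Tris-HCl pH 7.4, and counted by scintillation. Percent inhibition was computed against DMSO totals and reference-ligand nonspecific wells.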

Human Melanocortin (MC3) = target: T3, Human Melanocortin (MC3) (Homo sapiens, UniProt P41968); assay: Radioligand binding, human melanocortin MC3 membranes, FlashPlate, [125I]-NDP-αMSH; settings: compound at 10 μM; for A3: inhibition of radioligand binding, human melanocortin (MC3) / A3: inhibition of radioligand binding: [125I]-NDP-αMSH; for A3: inhibition of radioligand binding: human MC3 membranes
T3 construct: purchased Perkin Elmer Biosignal
Method in brief: as §1

Human Melanocortin (MC4) = target: T4, Human Melanocortin (MC4) (Homo sapiens, UniProt P32245); assay: Radioligand binding, human melanocortin MC4 membranes, FlashPlate, [125I]-NDP-αMSH; settings: compound at 10 μM; for A4: inhibition of radioligand binding, human melanocortin (MC4) / A4: inhibition of radioligand binding: [125I]-NDP-αMSH; for A4: inhibition of radioligand binding: human MC4 membranes
T4 construct: purchased Perkin Elmer Biosignal
Method in brief: as §1

Human melanocortin (MC5) = target: T5, Human melanocortin (MC5) (Homo sapiens, UniProt P33032); assay: Radioligand binding, human melanocortin MC5 membranes, FlashPlate, [125I]-NDP-αMSH; settings: compound at 10 μM; for A5: inhibition of radioligand binding, human melanocortin (MC5) / A5: inhibition of radioligand binding: [125I]-NDP-αMSH; for A5: inhibition of radioligand binding: human MC5 membranes
T5 construct: purchased Perkin Elmer Biosignal
Method in brief: as §1

[1] = target: T6, Human melanin-concentrating hormone (MCH1) (Homo sapiens, UniProt Q99705); assay: Radioligand binding, human melanin-concentrating hormone MCH1 membranes, FlashPlate, [125I]-S36057; settings: compound at 10 μM; for A6: inhibition of radioligand binding, human melanin-concentrating hormone (MCH1): [125I]-S36057; for A6: inhibition of radioligand binding: [125I]-S36057, human MCH1 membranes
T6 construct: purchased Perkin Elmer Biosignal
Method in brief: as §1

Human μ-opioid (MOP) = target: T7, Human μ-opioid (MOP) (Homo sapiens, UniProt P35372); assay: Radioligand binding, human μ-opioid (MOP) membranes, FlashPlate, [3H]-Naloxone; settings: compound at 10 μM; for A7: inhibition of radioligand binding, human μ-opioid (MOP) / A7: inhibition of radioligand binding: [3H]-Naloxone; for A7: inhibition of radioligand binding: human MOP membranes
T7 construct: purchased Perkin Elmer Biosignal
Method in brief: as §1

Human neurokinin (NK1) = target: T8, Human neurokinin (NK1) (Homo sapiens, UniProt P25103); assay: Radioligand binding, human neurokinin NK1 membranes, filtration, [125I]-Substance P; settings: compound at 10 μM; for A8: inhibition of radioligand binding, human neurokinin (NK1) / A8: inhibition of radioligand binding: [125I]-Substance P; for A8: inhibition of radioligand binding: human NK1 membranes
T8 construct: purchased Perkin Elmer Biosignal
Method in brief: as §2

[2] = target: T9, Human neuropeptide Y (NPY-Y1) (Homo sapiens, UniProt P25929); assay: Radioligand binding, human neuropeptide Y NPY-Y1 membranes, FlashPlate, [125I]-PYY; settings: compound at 10 μM; for A9: inhibition of radioligand binding, human neuropeptide Y (NPY-Y1) / A9: inhibition of radioligand binding: [125I]-PYY
T9 construct: purchased Perkin Elmer Biosignal
T9 sequence (P25929 1-384): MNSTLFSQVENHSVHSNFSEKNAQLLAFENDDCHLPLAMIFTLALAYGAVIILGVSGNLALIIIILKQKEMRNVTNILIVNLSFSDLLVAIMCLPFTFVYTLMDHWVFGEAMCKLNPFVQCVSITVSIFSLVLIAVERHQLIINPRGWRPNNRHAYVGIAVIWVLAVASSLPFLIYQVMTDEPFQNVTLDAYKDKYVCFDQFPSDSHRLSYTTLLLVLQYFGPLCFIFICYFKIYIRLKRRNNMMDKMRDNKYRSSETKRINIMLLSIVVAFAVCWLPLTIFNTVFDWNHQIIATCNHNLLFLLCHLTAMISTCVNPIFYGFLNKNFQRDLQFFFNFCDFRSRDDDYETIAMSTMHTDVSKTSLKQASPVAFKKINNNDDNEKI
Method in brief: as §1

Human opioid (ORL1) = target: T10, Human opioid (ORL1) (Homo sapiens, UniProt P41146); assay: Radioligand binding, human opioid ORL1 membranes, FlashPlate, [125I]-Nociceptin; settings: compound at 10 μM; for A10: inhibition of radioligand binding, human opioid (ORL1) / A10: inhibition of radioligand binding: [125I]-Nociceptin
T10 construct: purchased Perkin Elmer Biosignal
Method in brief: as §1

Mouse urotensin (mUR2) = target: T11, Mouse urotensin (mUR2) (Mus musculus, UniProt Q8VIH9); assay: Radioligand binding, mouse urotensin mUR2 membranes, FlashPlate, [125I]-Urotensin II; settings: compound at 10 μM; for A11: inhibition of radioligand binding, mouse urotensin (mUR2) / A11: inhibition of radioligand binding: [125I]-Urotensin II; for A11: inhibition of radioligand binding: mouse mUR2 membranes
T11 construct: purchased Perkin Elmer Biosignal
T11 sequence (Q8VIH9 1-385): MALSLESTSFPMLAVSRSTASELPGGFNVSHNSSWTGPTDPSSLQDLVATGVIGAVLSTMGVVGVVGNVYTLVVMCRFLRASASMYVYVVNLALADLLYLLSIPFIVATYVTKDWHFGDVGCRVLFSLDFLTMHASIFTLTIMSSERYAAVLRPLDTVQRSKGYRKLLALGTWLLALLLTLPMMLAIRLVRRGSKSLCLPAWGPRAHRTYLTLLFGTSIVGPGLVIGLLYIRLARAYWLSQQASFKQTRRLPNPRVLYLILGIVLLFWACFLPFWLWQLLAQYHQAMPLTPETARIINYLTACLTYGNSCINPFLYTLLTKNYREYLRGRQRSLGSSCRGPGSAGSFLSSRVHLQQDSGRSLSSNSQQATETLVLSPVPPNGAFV
Method in brief: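 Cloned mouse urotensin (mUR2) receptor membranes from Perkin Elmer Biosignal were immobilized in FlashPlate microplates using a proprietary coating. Each well got 19.5 μl buffer, then 0.5 μl of DMSO, reference ligand, or compound. Adding 5 μl of [125I]-Urotensin II, diluted to 5× final concentration in binding buffer, started binding. Plates were sealed with TopSeal-A and incubated 1 hour at room temperature in the dark. Wells were counted for 30 seconds each on a TopCount after a 60-second delay, and percentage inhibition was calculated.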

T10 sequence (P41146 whole entry): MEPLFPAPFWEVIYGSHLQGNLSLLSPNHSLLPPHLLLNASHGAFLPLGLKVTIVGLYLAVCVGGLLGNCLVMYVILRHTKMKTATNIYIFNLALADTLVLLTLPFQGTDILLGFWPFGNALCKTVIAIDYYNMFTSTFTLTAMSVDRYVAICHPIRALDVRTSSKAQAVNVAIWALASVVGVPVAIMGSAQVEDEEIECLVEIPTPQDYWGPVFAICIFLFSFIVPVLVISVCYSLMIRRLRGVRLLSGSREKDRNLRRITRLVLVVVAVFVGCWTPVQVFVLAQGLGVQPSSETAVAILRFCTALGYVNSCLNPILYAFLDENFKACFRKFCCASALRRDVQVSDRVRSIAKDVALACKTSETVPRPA
T6 sequence (Q99705 whole entry): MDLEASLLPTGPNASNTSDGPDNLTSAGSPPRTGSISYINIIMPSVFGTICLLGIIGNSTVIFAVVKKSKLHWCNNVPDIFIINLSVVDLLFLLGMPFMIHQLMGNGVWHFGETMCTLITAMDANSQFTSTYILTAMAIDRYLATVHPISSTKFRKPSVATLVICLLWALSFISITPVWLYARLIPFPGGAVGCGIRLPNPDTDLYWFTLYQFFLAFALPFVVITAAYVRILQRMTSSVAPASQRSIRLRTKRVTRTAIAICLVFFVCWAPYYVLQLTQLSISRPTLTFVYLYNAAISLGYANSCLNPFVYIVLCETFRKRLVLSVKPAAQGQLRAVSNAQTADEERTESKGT
T2 sequence (P41145 whole entry): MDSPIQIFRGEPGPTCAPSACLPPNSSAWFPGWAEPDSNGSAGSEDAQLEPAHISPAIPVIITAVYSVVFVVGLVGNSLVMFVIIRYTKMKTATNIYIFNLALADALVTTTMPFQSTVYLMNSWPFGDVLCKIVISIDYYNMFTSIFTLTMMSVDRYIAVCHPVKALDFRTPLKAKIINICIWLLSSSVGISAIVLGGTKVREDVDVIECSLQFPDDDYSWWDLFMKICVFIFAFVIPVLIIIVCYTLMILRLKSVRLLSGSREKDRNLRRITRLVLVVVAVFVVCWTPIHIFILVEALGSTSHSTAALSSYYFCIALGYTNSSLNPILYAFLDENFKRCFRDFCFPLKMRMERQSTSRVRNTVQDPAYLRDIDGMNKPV
T8 sequence (P25103 whole entry): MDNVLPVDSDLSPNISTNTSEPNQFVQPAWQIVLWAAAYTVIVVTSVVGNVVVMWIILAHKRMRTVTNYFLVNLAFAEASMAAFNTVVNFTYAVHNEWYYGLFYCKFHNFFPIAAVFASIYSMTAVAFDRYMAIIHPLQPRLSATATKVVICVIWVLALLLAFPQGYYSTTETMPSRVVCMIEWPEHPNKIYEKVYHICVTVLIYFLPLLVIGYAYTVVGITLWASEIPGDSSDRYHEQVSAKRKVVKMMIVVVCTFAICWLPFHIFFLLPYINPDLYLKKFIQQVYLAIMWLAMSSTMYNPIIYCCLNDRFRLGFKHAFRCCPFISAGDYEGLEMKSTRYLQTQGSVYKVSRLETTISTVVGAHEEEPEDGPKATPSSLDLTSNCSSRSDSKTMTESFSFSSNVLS
T5 sequence (P33032 whole entry): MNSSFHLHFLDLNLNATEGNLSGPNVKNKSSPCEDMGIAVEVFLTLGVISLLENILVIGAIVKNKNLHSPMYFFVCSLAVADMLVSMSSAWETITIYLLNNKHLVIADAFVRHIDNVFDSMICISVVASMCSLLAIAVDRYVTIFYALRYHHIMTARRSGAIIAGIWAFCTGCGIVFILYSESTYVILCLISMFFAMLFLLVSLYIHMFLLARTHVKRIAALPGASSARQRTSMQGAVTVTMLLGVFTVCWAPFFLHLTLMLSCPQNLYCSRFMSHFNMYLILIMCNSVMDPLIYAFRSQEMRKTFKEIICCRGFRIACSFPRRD
T1 sequence (P41143 whole entry): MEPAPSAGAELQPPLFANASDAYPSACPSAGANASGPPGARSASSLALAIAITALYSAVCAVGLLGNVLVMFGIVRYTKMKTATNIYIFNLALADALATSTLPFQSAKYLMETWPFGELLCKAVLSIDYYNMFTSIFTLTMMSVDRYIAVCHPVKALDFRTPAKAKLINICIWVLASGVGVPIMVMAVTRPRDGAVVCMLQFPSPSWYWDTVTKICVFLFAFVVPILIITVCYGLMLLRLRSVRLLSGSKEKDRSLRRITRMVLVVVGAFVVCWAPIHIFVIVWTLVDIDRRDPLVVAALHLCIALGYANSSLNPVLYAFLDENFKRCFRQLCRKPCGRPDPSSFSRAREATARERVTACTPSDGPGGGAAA
T7 sequence (P35372 whole entry): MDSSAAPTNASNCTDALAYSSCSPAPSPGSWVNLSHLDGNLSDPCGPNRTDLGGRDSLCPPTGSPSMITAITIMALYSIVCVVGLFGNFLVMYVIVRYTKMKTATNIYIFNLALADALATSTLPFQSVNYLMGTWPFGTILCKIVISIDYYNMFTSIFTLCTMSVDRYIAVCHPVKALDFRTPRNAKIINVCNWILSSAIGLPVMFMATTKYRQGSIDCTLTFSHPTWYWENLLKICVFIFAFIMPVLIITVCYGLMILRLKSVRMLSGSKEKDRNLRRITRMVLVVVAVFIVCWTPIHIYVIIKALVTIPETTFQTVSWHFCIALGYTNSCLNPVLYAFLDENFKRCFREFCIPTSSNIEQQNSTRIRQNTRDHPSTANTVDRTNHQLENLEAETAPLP
T4 sequence (P32245 whole entry): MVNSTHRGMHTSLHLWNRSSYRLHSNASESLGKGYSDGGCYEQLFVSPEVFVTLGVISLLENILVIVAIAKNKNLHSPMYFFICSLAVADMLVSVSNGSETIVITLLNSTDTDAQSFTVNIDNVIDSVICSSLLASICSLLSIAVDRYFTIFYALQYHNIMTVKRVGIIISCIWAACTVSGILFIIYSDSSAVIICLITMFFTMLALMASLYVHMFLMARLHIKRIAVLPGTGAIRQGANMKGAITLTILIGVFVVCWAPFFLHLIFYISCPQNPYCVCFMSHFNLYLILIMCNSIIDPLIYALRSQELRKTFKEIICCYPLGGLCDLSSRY
T3 sequence (P41968 whole entry): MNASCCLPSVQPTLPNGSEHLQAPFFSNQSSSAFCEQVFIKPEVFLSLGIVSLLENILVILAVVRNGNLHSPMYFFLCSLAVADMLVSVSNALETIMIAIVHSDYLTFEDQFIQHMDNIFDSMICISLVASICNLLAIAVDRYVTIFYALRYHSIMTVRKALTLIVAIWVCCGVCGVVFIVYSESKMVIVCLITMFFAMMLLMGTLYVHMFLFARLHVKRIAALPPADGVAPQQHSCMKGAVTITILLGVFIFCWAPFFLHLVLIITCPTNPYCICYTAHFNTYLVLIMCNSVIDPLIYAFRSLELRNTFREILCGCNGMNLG

Compound	A1: inhibition of radioligand binding, human δ-opioid (DOP) (Human δ-opioid (DOP))	A2: inhibition of radioligand binding, human κ-opioid (KOP) (Human κ-Opioid (KOP))	A3: inhibition of radioligand binding, human melanocortin (MC3) (Human Melanocortin (MC3))	A4: inhibition of radioligand binding, human melanocortin (MC4) (Human Melanocortin (MC4))	A5: inhibition of radioligand binding, human melanocortin (MC5) (Human melanocortin (MC5))	A6: inhibition of radioligand binding, human melanin-concentrating hormone (MCH1) [1]	A7: inhibition of radioligand binding, human μ-opioid (MOP) (Human μ-opioid (MOP))	A8: inhibition of radioligand binding, human neurokinin (NK1) (Human neurokinin (NK1))	A9: inhibition of radioligand binding, human neuropeptide Y (NPY-Y1) [2]	A10: inhibition of radioligand binding, human opioid (ORL1) (Human opioid (ORL1))	A11: inhibition of radioligand binding, mouse urotensin (mUR2) (Mouse urotensin (mUR2))	A1: inhibition of radioligand binding (Human δ-opioid (DOP))	A2: inhibition of radioligand binding (Human κ-Opioid (KOP))	A3: inhibition of radioligand binding (Human Melanocortin (MC3))	A4: inhibition of radioligand binding (Human Melanocortin (MC4))	A5: inhibition of radioligand binding (Human melanocortin (MC5))	A8: inhibition of radioligand binding (Human neurokinin (NK1))	A9: inhibition of radioligand binding ([2]; human NPY-Y1 membranes)	A11: inhibition of radioligand binding (Mouse urotensin (mUR2))	other results
CSC1O[C@H](COCc2ccc3ccccc3c2)[C@@H](O)[C@@H](OCc2ccc(-c3ccccc3)cc2)[C@H]1NC(=O)CNC(=N)N (stereo partly shown) [compound 296]	− (“−” indicates less than 50% inhibition at 10 μM)	− (“−” indicates less than 50% inhibition at 10 μM)	− (“−” indicates less than 50% inhibition at 10 μM)	− (“−” indicates less than 50% inhibition at 10 μM)	− (“−” indicates less than 50% inhibition at 10 μM)	− (“−” indicates less than 50% inhibition at 10 μM)	− (“−” indicates less than 50% inhibition at 10 μM)	+ (“+” indicates greater than 50% inhibition at 10 μM)	− (“−” indicates less than 50% inhibition at 10 μM)	− (“−” indicates less than 50% inhibition at 10 μM)	− (“−” indicates less than 50% inhibition at 10 μM)									
N=C(N)NCCC(=O)NC1C(OCc2ccc(-c3ccccc3)cc2)OC(COCc2ccc3ccccc3c2)C(O)C1OCc1ccc(-c2ccccc2)cc1 (stereo not shown) [compound 414]												− (“−” indicates less than 50% inhibition at 10 μM)	− (“−” indicates less than 50% inhibition at 10 μM)	− (“−” indicates less than 50% inhibition at 10 μM)	− (“−” indicates less than 50% inhibition at 10 μM)	+ (“+” indicates greater than 50% inhibition at 10 μM)	+ (“+” indicates greater than 50% inhibition at 10 μM)	− (“−” indicates less than 50% inhibition at 10 μM)	− (“−” indicates less than 50% inhibition at 10 μM)	A6: inhibition of radioligand binding [1]: − (“−” indicates less than 50% inhibition at 10 μM); A7: inhibition of radioligand binding (Human μ-opioid (MOP)): − (“−” indicates less than 50% inhibition at 10 μM); A10: inhibition of radioligand binding (Human opioid (ORL1); human ORL1 membranes): − (“−” indicates less than 50% inhibition at 10 μM)
NCCCC(=O)NC1C(OCc2ccc3ccccc3c2)OC(COCc2ccc(Cl)cc2)C(O)C1OCc1ccc(Cl)cc1 (single isomer, unassigned) [compound 458]												− (“−” indicates less than 50% inhibition at 10 μM)	− (“−” indicates less than 50% inhibition at 10 μM)	+ (“+” indicates greater than 50% inhibition at 10 μM)	+ (“+” indicates greater than 50% inhibition at 10 μM)	+ (“+” indicates greater than 50% inhibition at 10 μM)	+ (“+” indicates greater than 50% inhibition at 10 μM)	− (“−” indicates less than 50% inhibition at 10 μM)	− (“−” indicates less than 50% inhibition at 10 μM)	A6: inhibition of radioligand binding ([1]; 10 µM): + (“+” indicates greater than 50% inhibition at 10 μM); A7: inhibition of radioligand binding (Human μ-opioid (MOP); 10 µM): + (“+” indicates greater than 50% inhibition at 10 μM); A10: inhibition of radioligand binding (Human opioid (ORL1); human ORL1 membranes, 10 µM): + (“+” indicates greater than 50% inhibition at 10 μM)
CO[C@H]1[C@H](O)[C@@H](COCc2ccc(-c3ccccc3)cc2)OC(OCc2ccc3ccccc3c2)[C@@H]1NC(=O)CCCN (stereo partly shown) [compound 68]																				A1 radioligand binding inhibition (Human δ-opioid (DOP); human δ-opioid (DOP) membranes): − (“−” indicates less than 50% inhibition at 10 μM); A2 radioligand binding inhibition (Human κ-Opioid (KOP); human κ-opioid (KOP) membranes): − (“−” indicates less than 50% inhibition at 10 μM); A3 radioligand binding inhibition (Human Melanocortin (MC3); human melanocortin MC3 membranes): + (“+” indicates greater than 50% inhibition at 10 μM); A4 radioligand binding inhibition (Human Melanocortin (MC4); human melanocortin MC4 membranes): + (“+” indicates greater than 50% inhibition at 10 μM); A5 radioligand binding inhibition (Human melanocortin (MC5); human melanocortin MC5 membranes): + (“+” indicates greater than 50% inhibition at 10 μM); A6 radioligand binding inhibition ([1]; human MCH1 membranes): + (“+” indicates greater than 50% inhibition at 10 μM); A7 radioligand binding inhibition (Human μ-opioid (MOP); human μ-opioid (MOP) membranes): − (“−” indicates less than 50% inhibition at 10 μM); A8 radioligand binding inhibition (Human neurokinin (NK1); human neurokinin NK1 membranes): + (“+” indicates greater than 50% inhibition at 10 μM); A9 radioligand binding inhibition ([2]; human NPY-Y1 membranes): − (“−” indicates less than 50% inhibition at 10 μM); A10 radioligand binding inhibition (Human opioid (ORL1); human ORL1 membranes): − (“−” indicates less than 50% inhibition at 10 μM); A11 radioligand binding inhibition (Mouse urotensin (mUR2); mouse urotensin mUR2 membranes): − (“−” indicates less than 50% inhibition at 10 μM)
NCCCC(=O)NC1C(OCc2ccccc2)OC(COCc2ccc3ccccc3c2)C(O)C1OCc1ccccc1 (stereo not shown) [compound 378]	− (“−” indicates less than 50% inhibition at 10 μM)	− (“−” indicates less than 50% inhibition at 10 μM)	− (“−” indicates less than 50% inhibition at 10 μM)	+ (“+” indicates greater than 50% inhibition at 10 μM)	+ (“+” indicates greater than 50% inhibition at 10 μM)	− (“−” indicates less than 50% inhibition at 10 μM)	− (“−” indicates less than 50% inhibition at 10 μM)	+ (“+” indicates greater than 50% inhibition at 10 μM)	− (“−” indicates less than 50% inhibition at 10 μM)	− (“−” indicates less than 50% inhibition at 10 μM)	− (“−” indicates less than 50% inhibition at 10 μM)									

— patent publication US20080009418A1, “Selective Inhibitors” (Alchemia LTD., priority 2004, published 2008)
